In the experiment the test system is SAUR 9218. Briefly: MIC Test Method, standard agar dilution. In kind it is cell-based. To be noted: for MIC: read-out: SAUR 9218 MIC. An outline of the steps: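 Agar dilution in Mueller Hinton agar with serial 2-fold compound dilutions. Staphylococcus aureus strain 9218 spotted at approximately 10^4 to 10^5 cells per spot, incubated overnight at 35 °C; MIC (μg/ml) is the lowest concentration preventing visible growth.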
In general terms: Agar dilution tests growth on a series of plates holding different concentrations.

Setting [1] is: agar dilution, Mueller Hinton agar, incubated overnight at 35° C., lowest concentration that inhibits visible growth.

≈ marks a conversion by molar mass, not a printed value. Like-named read-outs stand apart in the source and are kept apart here. A value given as a limit tells only on which side of the number the result lay.

Broadly, the MIC is the lowest concentration found to suppress growth.

On to `O=C(Nc1ccc(Br)cc1C(=O)O)c1csc(S(=O)(=O)N2CCN(c3cccc(C(F)(F)F)c3)CC2)c1`, for which the minimum inhibitory concentration (MIC) under setting [1] stood at 16 µg/mL (≈ 25.9 µM).

With `O=C(Nc1ccc(Br)cc1C(=O)O)c1ccc2c(c1)OCO2`, the MIC under setting [1] came out at 16 µg/mL (≈ 43.9 µM).

`O=C(Nc1ccc(Br)cc1C(=O)O)c1cc2ccccc2o1`: the minimal inhibitory concentration (MIC) under setting [1] is 8 µg/mL (≈ 22.2 µM).

For `O=C(O)c1cc(Br)ccc1NC(=O)c1cccnc1Cl`, the minimum inhibitory concentration (MIC) under setting [1] was > 128 µg/mL.

For the compound `O=C(Nc1ccc(Br)cc1C(=O)O)c1ccccn1`, under setting [1], the MIC was > 128 µg/mL.

For the compound `CCCCc1ccc(C(=O)Nc2ccc(Br)cc2C(=O)O)nc1`, the minimum inhibitory concentration (MIC) under setting [1] is > 128 µg/mL.

With `O=C(O)c1cc(Br)ccc1NC(=O)c1cc(-c2ccccc2)nc2ccccc12`, under setting [1], the MIC is 64 µg/mL (≈ 143 µM).

Take `N#Cc1ccc(NC(=O)c2cc3cccc(NC(=O)CF)c3[nH]2)c(C(=O)O)c1`: the MIC was found to be 2 µg/mL (≈ 5.26 µM).

`CCCCSc1cnc(C(=O)Nc2ccc(Br)cc2C(=O)O)cn1`: the MIC under setting [1] was determined as 1 µg/mL (≈ 2.44 µM).

In the case of `CCCCSc1cnc(C(=O)Nc2ccc(Cl)cc2C(=O)O)cn1`, under setting [1], the minimum inhibitory concentration (MIC) came to 0.5 µg/mL (≈ 1.37 µM).

Regarding `Cn1c(/C=C/c2ccc(C#N)cc2C(=O)O)cc2ccccc21`, under setting [1], the MIC turned out to be 64 µg/mL (≈ 212 µM).

As to `Cn1nc(-c2ccccc2)cc1C(=O)Nc1ccc(Br)cc1C(=O)O`, under setting [1], the minimum inhibitory concentration (MIC) was 64 µg/mL (≈ 160 µM).

Take `Cn1nc(C(=O)Nc2ccc(Br)cc2C(=O)O)cc1-c1ccccc1`: the MIC under setting [1] stood at 32 µg/mL (≈ 80 µM).

Take `COc1ccc(-c2cc(C(=O)Nc3ccc(Br)cc3C(=O)O)nn2C)cc1`: the MIC under setting [1] was > 128 µg/mL.

As for `O=C(Nc1ccc(Br)cc1C(=O)O)c1cc(-c2ccccc2)n[nH]1`, under setting [1], the MIC was > 128 µg/mL.

On to `O=C(O)c1cc(Br)ccc1NC(=O)c1noc2ccccc12`, for which the MIC under setting [1] worked out at 0.25 µg/mL (≈ 0.692 µM).

For `N#Cc1ccc(NC(=O)c2ncc(-c3ccccc3C(F)(F)F)o2)c(C(=O)O)c1`, the MIC under setting [1] came to 1 µg/mL (≈ 2.49 µM).

With `N#Cc1ccc(NC(=O)c2ccc(SCCCCN)nc2)c(C(=O)O)c1.O=C(O)C(F)(F)F`, under setting [1], the MIC is 2 µg/mL.

Turning to `CCCCCSc1cnc(C(=O)Nc2ccc(Br)cc2C(=O)O)cn1`, the MIC under setting [1] worked out at 0.25 µg/mL (≈ 0.589 µM).

Regarding `CCCCCCSc1cnc(C(=O)Nc2ccc(Br)cc2C(=O)O)cn1`, the MIC under setting [1] worked out at 0.5 µg/mL (≈ 1.14 µM).

As to `CCC(C)Sc1cnc(C(=O)Nc2ccc(C#N)cc2C(=O)O)cn1` (stereo not shown), the MIC under setting [1] was determined as 0.25 µg/mL (≈ 0.701 µM).

In the case of `N#Cc1ccc(NC(=O)c2ncc(-c3ccco3)o2)c(C(=O)O)c1`, the MIC under setting [1] turned out to be 2 µg/mL (≈ 6.19 µM).

For the compound `O=C(Nc1ccc(Br)cc1C(=O)O)c1ncc(-c2ccco2)o1`, under setting [1], the MIC stood at 2 µg/mL (≈ 5.3 µM).

Consider `Cn1nc(-c2c(F)cccc2F)cc1C(=O)Nc1ccc(Br)cc1C(=O)O`, for which the minimal inhibitory concentration (MIC) under setting [1] is 128 µg/mL (≈ 293 µM).

Take `Cc1noc(-c2ccccc2)c1C(=O)Nc1cccc2cc(C(=O)Nc3ccc(C#N)cc3C(=O)O)[nH]c12`: the MIC under setting [1] amounted to 0.5 µg/mL (≈ 0.989 µM).

For the compound `COCCOCCOCC(=O)Nc1cccc2cc(C(=O)Nc3ccc(C#N)cc3C(=O)O)[nH]c12`, the minimum inhibitory concentration (MIC) under setting [1] came to 4 µg/mL (≈ 8.33 µM).

Regarding `N#Cc1ccc(NC(=O)c2cc3cccc(NC(=O)c4ccccc4O)c3[nH]2)c(C(=O)O)c1`, the minimal inhibitory concentration (MIC) under setting [1] came to 1 µg/mL (≈ 2.27 µM).

As to `N#Cc1ccc(NC(=O)c2cc3cccc(NS(=O)(=O)c4ccc(OC(F)(F)F)cc4)c3[nH]2)c(C(=O)O)c1`, under setting [1], the MIC worked out at 1 µg/mL (≈ 1.84 µM).

For `N#Cc1ccc(NC(=O)c2cc3cccc(NC(=O)C4CCCN4)c3[nH]2)c(C(=O)O)c1` (stereo not shown), the MIC under setting [1] was > 128 µg/mL.

For `Cc1cc(CC(=O)Nc2cccc3cc(C(=O)Nc4ccc(C#N)cc4C(=O)O)[nH]c23)on1`, the MIC under setting [1] worked out at 2 µg/mL (≈ 4.51 µM).

On to `O=C(Nc1ccc(Br)cc1C(=O)O)c1ncc(-c2ccc(F)cc2)o1`, for which, under setting [1], the minimal inhibitory concentration (MIC) was determined as 2 µg/mL (≈ 4.94 µM).

For `N#Cc1ccc(-c2cnc(C(=O)Nc3ccc(C#N)cc3C(=O)O)o2)cc1`, the MIC under setting [1] is > 128 µg/mL.

As to `Cn1cccc1-c1cnc(C(=O)Nc2ccc(Br)cc2C(=O)O)o1`, the MIC under setting [1] was 2 µg/mL (≈ 5.13 µM).

Regarding `N#Cc1cccc(-c2cnc(C(=O)Nc3ccc(Br)cc3C(=O)O)o2)c1`, the MIC under setting [1] was found to be 4 µg/mL (≈ 9.7 µM).

As to `CCCCCSc1cnc(C(=O)Nc2ccc(C#N)cc2C(=O)O)cn1`, the minimum inhibitory concentration (MIC) under setting [1] was found to be 0.125 µg/mL (≈ 0.337 µM).

`COCCOCCCSc1cnc(C(=O)Nc2ccc(Br)cc2C(=O)O)cn1`: the minimal inhibitory concentration (MIC) under setting [1] was 2 µg/mL (≈ 4.25 µM).

In the case of `COCCOCCCSc1cnc(C(=O)Nc2ccc(Cl)cc2C(=O)O)cn1`, under setting [1], the MIC turned out to be 2 µg/mL (≈ 4.7 µM).

With `N#Cc1ccc(NC(=O)c2cc(-c3ccccc3NS(=O)(=O)c3ccc(OC(F)(F)F)cc3)on2)c(C(=O)O)c1`, the MIC under setting [1] came to 8 µg/mL (≈ 14 µM).

`O=C(Nc1ccc(Cl)cc1C(=O)O)c1cc(-c2ccccc2NS(=O)(=O)c2ccc(OC(F)(F)F)cc2)on1`: the minimum inhibitory concentration (MIC) under setting [1] is 8 µg/mL (≈ 13.7 µM).

Turning to `N#Cc1ccc(NC(=O)c2cc(-c3ccc4c(c3)OCO4)on2)c(C(=O)O)c1`, the MIC under setting [1] was 0.125 µg/mL (≈ 0.331 µM).

Take `O=C(Nc1ccc(Br)cc1C(=O)O)c1cc(-c2ccc3c(c2)OCO3)on1`: under setting [1], the MIC worked out at 0.125 µg/mL (≈ 0.29 µM).

Regarding `N#Cc1ccc(NC(=O)c2noc3ccc([N+](=O)[O-])cc23)c(C(=O)O)c1`, the MIC under setting [1] was determined as 0.25 µg/mL (≈ 0.71 µM).

As for `N#Cc1ccc(NC(=O)c2nc3ccccc3o2)c(C(=O)O)c1`, under setting [1], the minimum inhibitory concentration (MIC) is 1 µg/mL (≈ 3.25 µM).

As to `N#Cc1ccc(NC(=O)c2cc3cccc(NS(=O)(=O)Cc4ccccc4)c3[nH]2)c(C(=O)O)c1`, the MIC under setting [1] amounted to 0.125 µg/mL (≈ 0.263 µM).

On to `Cn1c(C(=O)Nc2ccc(C#N)cc2C(=O)O)cc2cccc(NC(=O)c3cccc(S(=O)(=O)N4CCOCC4)c3)c21`, for which, under setting [1], the MIC came to 2 µg/mL (≈ 3.4 µM).

Consider `Cn1c(C(=O)Nc2ccc(C#N)cc2C(=O)O)cc2cccc(NC(=O)Cc3ccc(F)cc3)c21`, for which, under setting [1], the minimum inhibitory concentration (MIC) worked out at 0.125 µg/mL (≈ 0.266 µM).

As to `Cn1c(C(=O)Nc2ccc(C#N)cc2C(=O)O)cc2cccc(NC(=O)CF)c21`, the MIC was determined as 1 µg/mL (≈ 2.54 µM).

As to `Cn1c(C(=O)Nc2cccc3cc(C(=O)Nc4ccc(C#N)cc4C(=O)O)n(C)c23)cc2ccccc21`, under setting [1], the minimal inhibitory concentration (MIC) was 0.125 µg/mL (≈ 0.254 µM).

As for `COCCOCCCSc1cnc(C(=O)Nc2ccc(C#N)cc2C(=O)O)cn1`, the minimal inhibitory concentration (MIC) under setting [1] was determined as 1 µg/mL (≈ 2.4 µM).

In the case of `CCCCCSc1cnc(C(=O)Nc2ccc(Cl)cc2C(=O)O)cn1`, the MIC under setting [1] was 0.125 µg/mL (≈ 0.329 µM).

For `CCCCCCSc1cnc(C(=O)Nc2ccc(C#N)cc2C(=O)O)cn1`, the MIC under setting [1] stood at 0.125 µg/mL (≈ 0.325 µM).

Take `CCCCCCSc1cnc(C(=O)Nc2ccc(Cl)cc2C(=O)O)cn1`: the minimal inhibitory concentration (MIC) under setting [1] was determined as 0.5 µg/mL (≈ 1.27 µM).

With `Cn1cccc1-c1cnc(C(=O)Nc2ccc(C#N)cc2C(=O)O)o1`, under setting [1], the MIC worked out at 2 µg/mL (≈ 5.95 µM).

Turning to `CCC(C)Sc1cnc(C(=O)Nc2ccc(Cl)cc2C(=O)O)cn1` (stereo not shown), the MIC under setting [1] stood at 0.25 µg/mL (≈ 0.683 µM).

For the compound `N#Cc1cccc(-c2cnc(C(=O)Nc3ccc(C#N)cc3C(=O)O)o2)c1`, under setting [1], the MIC came out at 2 µg/mL (≈ 5.58 µM).

`O=C(Nc1ccc(Br)cc1C(=O)O)c1coc(CC[C@H](O)CO)n1`: under setting [1], the MIC was > 128 µg/mL.

Consider `N#Cc1ccc(NC(=O)c2noc3ccc(NC(=O)Cc4ccccc4)cc23)c(C(=O)O)c1`, for which the MIC under setting [1] turned out to be 1 µg/mL (≈ 2.27 µM).

As to `N#Cc1ccc(NC(=O)c2noc3ccc(NS(=O)(=O)Cc4ccccc4)cc23)c(C(=O)O)c1`, the minimal inhibitory concentration (MIC) under setting [1] turned out to be 0.125 µg/mL (≈ 0.262 µM).

With `Cn1c(C(=O)Nc2ccc(C#N)cc2C(=O)O)cc2ccc(OCc3ccccc3)cc21`, the minimum inhibitory concentration (MIC) under setting [1] amounted to 0.125 µg/mL (≈ 0.294 µM).

In the case of `COc1ccc2cc(C(=O)Nc3ccc(C#N)cc3C(=O)O)n(C)c2c1`, the MIC under setting [1] turned out to be 0.5 µg/mL (≈ 1.43 µM).

Regarding `CC(C)Oc1ccccc1-c1cc(C(=O)Nc2ccc(C#N)cc2C(=O)O)no1`, the MIC under setting [1] was 0.125 µg/mL (≈ 0.319 µM).

Turning to `Cn1c(C(=O)Nc2ccc(C#N)cc2C(=O)O)cc2cccc(NC(=O)N3CCOCC3)c21`, under setting [1], the minimal inhibitory concentration (MIC) was determined as 8 µg/mL (≈ 17.9 µM).

For `Cn1c(C(=O)Nc2ccc(C#N)cc2C(=O)O)cc2cccc(NC(=O)NCC3CCCO3)c21` (stereo not shown), the MIC under setting [1] was found to be 1 µg/mL (≈ 2.17 µM).

On to `Cn1c(C(=O)Nc2ccc(C#N)cc2C(=O)O)cc2cccc(O)c21`, for which the MIC under setting [1] turned out to be 1 µg/mL (≈ 2.98 µM).

In the case of `CC1(C)OCC(CCc2nc(C(=O)Nc3ccc(Br)cc3C(=O)O)co2)O1` (stereo not shown), the minimum inhibitory concentration (MIC) under setting [1] was > 128 µg/mL.

As for `N#Cc1ccc(NC(=O)c2cnc(CCc3ccccc3)cn2)c(C(=O)O)c1`, the minimum inhibitory concentration (MIC) under setting [1] came to 16 µg/mL (≈ 43 µM).

For `CC1(C)OCC(/C=C/c2cnc(C(=O)Nc3ccc(Br)cc3C(=O)O)cn2)O1` (stereo not shown), the MIC under setting [1] came out at 32 µg/mL (≈ 71.4 µM).

For the compound `CN(c1ccc(Cl)cc1)S(=O)(=O)c1cc(C(=O)Nc2ccc(Br)cc2C(=O)O)cs1` [drawing 825], the “SAUR 9218 MIC” value under setting [1] is 2 µg/mL.

Regarding `Cc1sc(C(=O)Nc2ccc(C#N)cc2C(=O)O)cc1S(=O)(=O)N(C)C(C)C(O)c1ccccc1` (stereo not shown) [drawing 953], the “SAUR 9218 MIC” value under setting [1] turned out to be 32 µg/mL.

As to `Cc1sc(C(=O)Nc2ccc(C#N)cc2C(=O)O)cc1S(=O)(=O)N(C)C(C)C(O)c1ccccc1` (stereo not shown) [drawing 960], the “SAUR 9218 MIC” value under setting [1] was 128 µg/mL.

As to `O=C(Nc1ccc(Cl)cc1C(=O)O)c1cc(-c2ccccc2)on1` [drawing 1106], the MIC under setting [1] worked out at 1 µg/mL (≈ 2.92 µM).

Turning to `O=C(Nc1ccc(Cl)cc1C(=O)O)c1cc(-c2ccccc2)on1` [drawing 1111], the “SAUR 9218 MIC” value under setting [1] was 0.5 µg/mL.

Regarding `CN(c1ccc(Cl)cc1)S(=O)(=O)c1cc(C(=O)Nc2ccc(Br)cc2C(=O)O)cs1` [drawing 1603], under setting [1], the MIC is 4 µg/mL (≈ 7.55 µM).

Values taken from patent US20040110802A1, “Antibacterial benzoic acid derivatives” (priority 2002, published 2004).
